The term IC50 denotes the concentration that inhibits the measured activity by half. What is called inhibition is the relative decrease from the control value, in per cent. The AUC(0-inf) is the area under the concentration-time curve extrapolated to infinity. Higher therefore signals high exposure. The term AUC(0-t) denotes exposure summed from dosing to a finite time, without extrapolation to infinity. Low values mean less exposure, high ones more exposure. In general, half-life refers to how long it takes for the measured level to halve. Broadly, the AUC is concentration integrated over time.

In data set [1] the target is T1, TPH1 (Homo sapiens, UniProt P17752).
T1 construct: purchased BPS Bioscience
T1 sequence (P17752 1-444): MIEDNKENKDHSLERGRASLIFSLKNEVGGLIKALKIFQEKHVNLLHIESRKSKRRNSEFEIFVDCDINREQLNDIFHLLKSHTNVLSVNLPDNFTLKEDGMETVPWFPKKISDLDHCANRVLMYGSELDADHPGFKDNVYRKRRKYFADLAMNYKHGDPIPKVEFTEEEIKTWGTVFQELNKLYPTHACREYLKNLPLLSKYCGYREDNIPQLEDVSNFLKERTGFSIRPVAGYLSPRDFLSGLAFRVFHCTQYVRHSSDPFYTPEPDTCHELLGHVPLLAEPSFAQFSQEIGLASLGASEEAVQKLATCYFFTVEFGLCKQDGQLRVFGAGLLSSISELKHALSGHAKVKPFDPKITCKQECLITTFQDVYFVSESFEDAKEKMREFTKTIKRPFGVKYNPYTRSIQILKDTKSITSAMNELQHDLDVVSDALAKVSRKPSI
Put plainly: TPH1 enzyme inhibition, in vitro screening (BPS Bioscience kit, fluorescence). In kind it is biochemical. The protocol:
Consequently, the core structure of thienopyrimidine tyrosine (derivative 6) was selected as the starting point for the synthesis, evaluating the structure-activity relationships (SAR), and optimization of TPH1 inhibitors. […]
In vitro screening was performed as described previously [PMID: 33417443]. Briefly, TPH1 enzyme activity was measured with a commercially available kit (BPS Bioscience). Compounds were dissolved in DMSO (Sigma). Then, 10 μL of the compound was dispensed into a 96-well microplate, and 40 μL of the TPH1 enzyme solution (320 ng enzyme/reaction) was added. Then, 50 μL of the TPH1 reaction solution was added, and the microplate was sealed with aluminum foil. The microplate was immediately cooled to 4 °C, gently shaken, and incubated for 4 h. After a defined time, 10 μL of the TPH1 quench solution was added. Then, the fluorescence was measured with a Flexstation3 microplate reader at 300 nm for excitation and 360 nm for emission. All experiments were performed in triplicate.

The target in data set [2] is T2, CYP1A2 (Homo sapiens, UniProt P05177).
T2 construct: purchased Promega Corp. V9770
T2 sequence (P05177 1-516): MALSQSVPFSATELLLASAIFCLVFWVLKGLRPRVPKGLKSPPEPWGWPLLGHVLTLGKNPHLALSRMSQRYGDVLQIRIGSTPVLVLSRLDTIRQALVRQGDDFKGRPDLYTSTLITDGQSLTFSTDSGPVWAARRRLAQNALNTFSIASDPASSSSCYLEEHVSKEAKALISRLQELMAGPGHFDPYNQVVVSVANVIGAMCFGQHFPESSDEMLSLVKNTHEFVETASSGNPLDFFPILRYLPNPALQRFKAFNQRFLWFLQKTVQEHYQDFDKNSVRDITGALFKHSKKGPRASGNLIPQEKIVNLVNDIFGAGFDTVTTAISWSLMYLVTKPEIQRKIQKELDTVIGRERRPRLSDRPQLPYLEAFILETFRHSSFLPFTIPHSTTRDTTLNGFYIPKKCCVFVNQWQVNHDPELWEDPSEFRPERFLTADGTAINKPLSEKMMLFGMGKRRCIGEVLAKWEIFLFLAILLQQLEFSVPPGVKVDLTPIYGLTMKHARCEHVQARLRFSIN
As to the kind of experiment: CYP inhibition assay (P450-Glo) CYP1A2. The format is in vitro ADME. The conditions noted are these: P450-Glo CYP1A2 Screening System (CYP enzyme), read-out: CYP inhibition 1A2. The source says:
(§1) Five major screening systems: P450-Glo CYP1A2 Screening System (Catalog# V9770), P450-Glo CYP2C9 Screening System (Catalog# V9790), P450-Glo CYP2C19 (Catalog# V9880), P450-Glo CYP 2D6 (Catalog# V9890), and P450-Glo CYP3A4 (Catalog# V9920) were attained from Promega Corp. (Madison, WI). α-naphthoflavone, sulfaphenazole, amitriptyline, quinidine, and ketoconazole were identified as positive control inhibitors for CYP1A2, CYP2C9, CYP2C19, CYP2D6, and CYP3A4, respectively. The CYP enzyme and substrate were combined in a potassium phosphate (KPO4) buffer and the reaction is initiated by adding an NADPH regenerating system. The volume of the mixture (12.5 μL in a 96-well plate) was combined with an equal volume of test compound solution and positive control inhibitor (12.5 μL added to make the volume 25 μL). The reaction of the NADPH regeneration system was initiated by adding a 2× concentration of NADPH solution. Then an equal volume of luciferin detection reagent was added. The plates were incubated at room temperature for 20 min and the luminescence signal was measured by a microplate reader device.

In data set [3] the target is T3, CYP2D6 (Homo sapiens, UniProt P10635).
T3 construct: purchased Promega Corp. V9890
Put plainly: CYP inhibition assay (P450-Glo) CYP2D6. The format is in vitro ADME. The following applies: P450-Glo CYP2D6 Screening System (CYP enzyme), read-out: CYP inhibition 2D6.
Excerpt: as §1

A short description of data set [4]: Pharmacokinetic study in rats (iv and oral). In kind it is in vivo, male SD rats. The conditions noted are these: SD, rat, plasma, 5 mg/kg. The protocol:
The pharmacokinetic study of 18i was performed using eight-week-old male SD rats (Orient Bio Inc., Seongnam, Korea). 18i and its prodrug 21 (5 mg/kg, 2 mL/kg) were administered via intravenous and oral routes. Blood samples were collected at 0.033, 0.16, 0.5, 1, 2, 4, 6, 8, and 24 h for intravenous injection at 0.15, 0.5, 1, 2, 4, 6, 8, and 24 h for oral dosing after drug administration, and then immediately centrifuged at 10,000× g for 3 min. The plasma concentrations of 18i were determined by LC-MS/MS. The plasma concentration-time profiles and pharmacokientic parameters were analyzed by a non-compartmental method using the nonlinear least-squares regression program WinNonlin 5.3 (Pharsight, Mountain View, CA, USA).
The LC-MS/MS analysis was performed on an Agilent 1200 series (Agilent Technologies, Santa Clara, CA, USA) with an API 4000 linear ion trap triple quadruple mass spectrometer (AB Sciex, CA, USA). The chromatographic separation of the drug was carried out using a kinetex column (100 × 2.1 mm, 3 μm, Phenomenex, CA USA) with a SecurityGuard C18 guard column (4 mm × 2.0 mm i.d., Phenomenex). The flow rate was 300 µL/min with a mobile phase consisting of 0.1% formic acid in water (eluent A) and 0.1% formic acid in acetonitrile (eluent B) by linear gradient condition as follows: starting with 0 to 0.3 min, B: 5%; 0.3 to 2.5 min, B: 5 → 95%; 2.5 to 2.9 min, B: 95%; 2.9 to 3.0 min, B: 95 → 5%, and then re-equilibrated to initial conditions until 3 min. The total run time was 6 min and the injection volume of 5 μL.

T3 sequence (P10635 whole entry): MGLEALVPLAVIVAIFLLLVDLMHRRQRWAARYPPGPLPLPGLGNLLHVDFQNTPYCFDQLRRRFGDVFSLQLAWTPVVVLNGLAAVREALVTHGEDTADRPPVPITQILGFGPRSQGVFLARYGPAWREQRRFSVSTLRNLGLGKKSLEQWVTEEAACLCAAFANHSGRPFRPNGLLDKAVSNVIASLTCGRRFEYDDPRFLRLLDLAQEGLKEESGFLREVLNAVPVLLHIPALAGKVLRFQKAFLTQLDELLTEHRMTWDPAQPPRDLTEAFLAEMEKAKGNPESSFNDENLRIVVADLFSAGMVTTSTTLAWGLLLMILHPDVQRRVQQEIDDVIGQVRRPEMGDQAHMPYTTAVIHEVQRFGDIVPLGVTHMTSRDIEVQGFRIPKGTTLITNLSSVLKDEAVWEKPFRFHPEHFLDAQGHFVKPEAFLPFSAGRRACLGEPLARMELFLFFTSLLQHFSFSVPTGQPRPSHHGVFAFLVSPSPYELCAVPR

In the case of `Cc1ccn(-c2cc(Cl)ccc2[C@@H](Oc2ncnc3c(-c4ccc(C[C@H](N)C(=O)O)cc4)csc23)C(F)(F)F)n1.Cl` [Compound 18i, (S)-2-amino-3-(4-(4-((R)-1-(4-chloro-2-(3-methyl-1H-pyrazol-1-yl)phenyl)-2,2,2-trifluoroethoxy)thieno[3,2-d]pyrimidin-7-yl)phenyl)propanoic acid hydrochloride], in data set [1], the IC50 stood at 37 nM. For the same compound, in data set [1] (1 µM compound), 1 µM produced 95% inhibition. Also, the inhibition at 10 µM in data set [2] turned out to be 0.1%. The inhibition at 10 µM in data set [3] amounted to 24.6%. In data set [4] (male rats, iv, 5 mpk), this compound came in with an area under the curve AUC(0-inf) of 1220 ng·h/mL, an AUC(0-t) of 1210 ng·h/mL, a clearance of 68.2 mL/min/kg and a half-life of 1.85 h. Moreover, the Vd in data set [4] (male rats, iv, 5 mpk, read-out: Vss) was 2.16 L/kg. Also, the AUC in data set [4] (male, intravenous, rats, read-out: AUC (text, kind not stated)) turned out to be 1200 ng·h/mL.

The values above are taken from article PMC9182086, “Identification of New Non-BBB Permeable Tryptophan Hydroxylase Inhibitors for Treating Obesity and Fatty Liver Disease” (Molecules, 2022).
